pIC50: −log10 of the molar value.
Key:
[1] = molecular target: Tyrosine-protein kinase BTK (Homo sapiens, UniProt Q06187); test: Inhibition of BTK (unknown origin)
[2] = Antiproliferative activity against B cells (unknown origin); type: functional, cell-based; settings: B-cell
[3] = Plasma clearance in Sprague-Dawley rat at 2 mg/kg, iv; type: ADME, organism-based
[4] = Half life in Sprague-Dawley rat at 2 mg/kg, po; type: ADME, organism-based; settings: in vivo
[5] = Oral bioavailability in Sprague-Dawley rat at 2 mg/kg; type: ADME, organism-based; settings: in vivo
[6] = Cmax in Sprague-Dawley rat at 2 mg/kg, po; type: ADME, organism-based; set-up: dose 2 mg/kg, route oral; settings: in vivo
[7] = AUC(0 to t) in Sprague-Dawley rat at 2 mg/kg, po; type: ADME, organism-based; settings: in vivo
[8] = Metabolic stability in human plasma assessed as remaining compound at 1 uM after 4 hrs by LC-MS/MS analysis; type: ADME, cell-free; settings: read-out: Stability
[9] = Metabolic stability in Beagle dog plasma assessed as remaining compound at 1 uM after 4 hrs by LC-MS/MS analysis; type: ADME, cell-free, Canis lupus familiaris; settings: read-out: Stability
[10] = Metabolic stability in Sprague-Dawley rat plasma assessed as remaining compound at 1 uM after 4 hrs by LC-MS/MS analysis; type: ADME, cell-free; settings: read-out: Stability

Tyrosine-protein kinase BTK, sequence (Q06187 whole entry): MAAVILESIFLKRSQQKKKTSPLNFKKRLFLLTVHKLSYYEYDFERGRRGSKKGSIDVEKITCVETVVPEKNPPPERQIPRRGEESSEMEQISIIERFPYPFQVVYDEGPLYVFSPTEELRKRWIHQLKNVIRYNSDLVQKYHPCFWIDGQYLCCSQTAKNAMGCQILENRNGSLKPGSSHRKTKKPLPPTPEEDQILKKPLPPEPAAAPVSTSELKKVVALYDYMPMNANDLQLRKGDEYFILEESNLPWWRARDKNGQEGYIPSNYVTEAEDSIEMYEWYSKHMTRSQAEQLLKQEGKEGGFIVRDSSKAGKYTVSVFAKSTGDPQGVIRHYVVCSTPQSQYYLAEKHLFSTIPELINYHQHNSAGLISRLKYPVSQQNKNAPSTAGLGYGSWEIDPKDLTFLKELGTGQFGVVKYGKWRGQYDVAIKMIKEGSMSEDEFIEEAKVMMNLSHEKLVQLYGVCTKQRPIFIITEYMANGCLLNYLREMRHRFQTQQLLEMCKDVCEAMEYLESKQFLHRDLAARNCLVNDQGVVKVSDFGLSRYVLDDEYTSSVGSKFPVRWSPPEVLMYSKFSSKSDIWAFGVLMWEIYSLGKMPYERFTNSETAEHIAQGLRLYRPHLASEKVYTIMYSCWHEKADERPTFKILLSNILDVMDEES

Row | pIC50 [1] | Structure (SMILES) | pIC50 [2] | other results
1 | 7.89 | C=CC(=O)Nc1cccc(-n2c(=O)n(C)c3cnc(Nc4ccc(Oc5ccnc(C(=O)NC)c5)cc4)nc32)c1 | 7.86 | clearance [3]: 30 mL/min/kg; half-life [4]: 2.4 h; bioavailability [5]: 9%; Cmax [6]: 107 ng/mL; AUC(0-t) [7]: 100 ng·h/mL
2 | 6.50 | C=CC(=O)Nc1cccc(-n2c(=O)n(C3CCOCC3)c3cnc(Nc4ccc(OC)nc4)nc32)c1 |  | 
3 | 7.51 | C=CC(=O)Nc1cccc(Nc2nc(Nc3ccc(OCCOC)cc3)ncc2S(C)(=O)=O)c1 |  | 
4 | 8.39 | C=CC(=O)Nc1cccc(-n2c(=O)n(C)c3cnc(Nc4ccc(OCCOC)cc4)nc32)c1 | 8.16 | remaining at 4 h, 1 µM [8]: 42.2%; remaining at 4 h, 1 µM [9]: 16.2%; remaining at 4 h, 1 µM [10]: 27.5%; clearance [3]: 253 mL/min/kg; half-life [4]: 1.4 h; bioavailability [5]: 20%; Cmax [6]: 41 ng/mL; AUC(0-t) [7]: 27 ng·h/mL
5 | 7.51 | C=CC(=O)Nc1cccc(-n2c(=O)n(CC3CC3)c3cnc(Nc4ccc(N5CCOCC5)cc4)nc32)c1 | 7.15 | remaining at 4 h, 1 µM [8]: 40.8%; remaining at 4 h, 1 µM [9]: 93.4%; remaining at 4 h, 1 µM [10]: 80.5%
6 | 6.58 | C=CC(=O)Nc1cccc(-n2c(=O)n(CCOC)c3cnc(Nc4ccc(OC)nc4)nc32)c1 |  | 
7 | 8.18 | C=CC(=O)Nc1cccc(Nc2nc(Nc3ccc(OCCOC)cc3)ncc2SC)c1 | 7.51 | 
8 | 8.97 | C=CC(=O)Nc1cccc(Nc2nc(Nc3ccc(N4CCOCC4)cc3)ncc2SC)c1 | 7.19 | 
9 | 6.65 | C=CC(=O)Nc1cccc(-n2c(=O)n(CC3CC3)c3cnc(Nc4ccc(OC)nc4)nc32)c1 |  | 
10 | 7.51 | C=CC(=O)Nc1cccc(-n2c(=O)n(CC3CC3)c3cnc(Nc4ccc(N(C)C)nc4)nc32)c1 | 6.09 | 
11 | 9.04 | C=CC(=O)Nc1cccc(Nc2nc(Nc3ccc(N4CCOCC4)cc3)ncc2[S+](C)[O-])c1 (racemic) | 8.45 | 
12 | 8.42 | C=CC(=O)Nc1cccc(Nc2nc(Nc3ccc(OCCOC)cc3)ncc2[S+](C)[O-])c1 (racemic) | 8.23 | remaining at 4 h, 1 µM [8]: 86.7%; remaining at 4 h, 1 µM [9]: 94.3%; remaining at 4 h, 1 µM [10]: 90.7%; clearance [3]: 108 mL/min/kg; half-life [4]: 1.3 h; bioavailability [5]: 23%; Cmax [6]: 55 ng/mL; AUC(0-t) [7]: 73 ng·h/mL
13 | 8.83 | C=CC(=O)Nc1cccc(Nc2nc(Nc3ccc(N(C)C)nc3)ncc2[S+](C)[O-])c1 (racemic) | 7.83 | 
14 | 8.25 | C=CC(=O)Nc1cccc(Nc2nc(Nc3ccc(Oc4ccnc(C(=O)NC)c4)cc3)ncc2[S+](C)[O-])c1 (racemic) | 7.71 | 
15 |  | C=CC(=O)Nc1cccc(Nc2nc(Nc3ccc(OCCOC)cc3)ncc2F)c1 [SPEBRUTINIB] | 8.48 | 

— ChEMBL document CHEMBL3784966, “Approaching the active conformation of 1,3-diaminopyrimidine based covalent inhibitors of Bruton's tyrosine kinase for treatment of Rheumatoid arthritis” (Bioorg Med Chem Lett, 2016)
